Experimental data from patent publication US8729110B1, “2-thio-1,3,4-oxadiazoles derivatives as sphingosine-1 phosphate receptors modulators” (Allergan, Inc., priority 2012, dated 2014).

What follows are compounds tested against T1, human S1P1 receptor (Homo sapiens, UniProt P21453) (assay: GTP γ35S binding assay for S1P1 activity). Conditions: activity potency, S1P1 receptor from GTP γ35S binding; 5 μg membrane protein; test compounds 0.08 to 5,000 nM; 30 min at 25° C.
T1 construct: expressed in transfected cells; membranes used
Assay type: biochemical
Protocol: Compounds were synthesized and tested for S1P1 activity using the GTP γ^35S binding assay. These compounds may be assessed for their ability to activate or block activation of the human S1P1 receptor in cells stably expressing the S1P1 receptor.
GTP γ^35S binding was measured in the medium containing (mM) HEPES 25, pH 7.4, MgCl2 10, NaCl 100, dithitothreitol 0.5, digitonin 0.003%, 0.2 nM GTP γ^35S, and 5 μg membrane protein in a volume of 150 μl. Test compounds were included in the concentration range from 0.08 to 5,000 nM unless indicated otherwise. Membranes were incubated with 100 μM 5′-adenylylimmidodiphosphate for 30 min, and subsequently with 10 μM GDP for 10 min on ice. Drug solutions and membrane were mixed, and then reactions were initiated by adding GTP γ^35S and continued for 30 min at 25° C. Reaction mixtures were filtered over Whatman GF/B filters under vacuum, and washed three times with 3 mL of ice-cold buffer (HEPES 25, pH7.4, MgCl2 10 and NaCl 100). Filters were dried and mixed with scintillant, and counted for ^35S activity using a β-counter. Agonist-induced GTP γ^35S binding was obtained by subtracting that in the absence of agonist. Binding data were analyzed using a non-linear regression method. In case of antagonist assay, the reaction mixture contained 10 nM […] in the presence of test antagonist at concentrations ranging from 0.08 to 5000 nM.

T1 sequence (P21453 whole entry): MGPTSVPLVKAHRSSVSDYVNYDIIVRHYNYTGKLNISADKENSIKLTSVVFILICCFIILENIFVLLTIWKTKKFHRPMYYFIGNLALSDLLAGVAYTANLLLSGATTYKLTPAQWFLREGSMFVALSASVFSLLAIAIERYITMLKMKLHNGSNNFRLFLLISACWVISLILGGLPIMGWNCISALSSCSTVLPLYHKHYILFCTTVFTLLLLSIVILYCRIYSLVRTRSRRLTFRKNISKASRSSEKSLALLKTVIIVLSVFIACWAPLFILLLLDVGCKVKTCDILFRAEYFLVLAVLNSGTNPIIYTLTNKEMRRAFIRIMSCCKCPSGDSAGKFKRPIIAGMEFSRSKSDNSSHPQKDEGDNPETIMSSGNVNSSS

Row | EC50 [nM] | SMILES
1 | 888 | Cc1ccc(-c2nnc(SC(C)c3ccc(CNCCCP(=O)(O)O)cc3)o2)cc1C (centres unmarked) [(3-{[4-(1-{[5-(3,4-dimethylphenyl)-1,3,4-oxadiazol-2-yl]thio}ethyl)benzyl]amino}propyl)phosphonic acid]
2 | 805 | Cc1ccc(-c2nnc(SCc3ccc(CNCCCP(=O)(O)O)cc3)o2)cc1C [(3-{[4-({[5-(3,4-dimethylphenyl)-1,3,4-oxadiazol-2-yl]thio}methyl)benzyl]amino}propyl)phosphonic acid]
3 | 853 | O=P(O)(O)CCCNCc1ccc(-c2nnc(SCc3cccc(Cl)c3F)o2)cc1 [Compound 1, {3-[(4-{5-[(3-chloro-2-fluorobenzyl)thio]-1,3,4-oxadiazol-2-yl}benzyl)amino]propyl}phosphonic acid]
4 | 231 | Cc1cc(CNCCCP(=O)(O)O)ccc1-c1nnc(SC(C)c2cccc([N+](=O)[O-])c2)o1 (centres unmarked) [Compound 6, (3-{[3-methyl-4-(5-{[1-(3-nitrophenyl)ethyl]thio}-1,3,4-oxadiazol-2-yl)benzyl]amino}propyl)phosphonic acid]
5 | 50 | CCC(Sc1nnc(-c2ccc(CNCCCP(=O)(O)O)cc2C)o1)c1cccc([N+](=O)[O-])c1 (centres unmarked) [Compound 7, (3-{[3-methyl-4-(5-{[1-(3-nitrophenyl)propyl]thio}-1,3,4-oxadiazol-2-yl)benzyl]amino}propyl)phosphonic acid]
6 | 1810 | O=[N+]([O-])c1cccc(CSc2nnc(-c3ccc(CNCCCP(=O)(O)O)cc3)o2)c1 [Compound 9, {3-[(4-{5-[(3-nitrobenzyl)thio]-1,3,4-oxadiazol-2-yl}benzyl)amino]propyl}phosphonic acid]
7 | 97 | Cc1ccc(CSc2nnc(-c3ccc(CNCCCP(=O)(O)O)cc3)o2)cc1C [Compound 10, {3-[(4-{5-[(3,4-dimethylbenzyl)thio]-1,3,4-oxadiazol-2-yl}benzyl)amino]propyl}phosphonic acid]
8 | 30 | CCc1cc(CNCCCP(=O)(O)O)ccc1-c1nnc(SC(C)c2cccc([N+](=O)[O-])c2)o1 (centres unmarked) [Compound 11, (3-{[3-ethyl-4-(5-{[1-(3-nitrophenyl)ethyl]thio}-1,3,4-oxadiazol-2-yl)benzyl]amino}propyl)phosphonic acid]
9 | 1.5 | CCCC(Sc1nnc(-c2ccc(CNCCCP(=O)(O)O)cc2)o1)c1ccccc1 (centres unmarked) [Compound 14, {3-[(4-{5-[(1-phenylbutyl)thio]-1,3,4-oxadiazol-2-yl}benzyl)amino]propyl}phosphonic acid]
10 | 1.8 | CCCC(Sc1nnc(-c2ccc(CNCCCP(=O)(O)O)cc2)o1)c1cccc(Cl)c1F (centres unmarked) [Compound 15, (3-{[4-(5-{[1-(3-chloro-2-fluorophenyl)butyl]thio}-1,3,4-oxadiazol-2-yl)benzyl]amino}propyl)phosphonic acid]
11 | 40 | CCC(Sc1nnc(-c2ccc(CNCCCP(=O)(O)O)cc2)o1)c1cccc([N+](=O)[O-])c1 (centres unmarked) [Compound 16, (3-{[4-(5-{[1-(3-nitrophenyl)propyl]thio}-1,3,4-oxadiazol-2-yl)benzyl]amino}propyl)phosphonic acid]
12 | 382 | CC(Sc1nnc(-c2ccc(CNCCCP(=O)(O)O)cc2)o1)c1cccc([N+](=O)[O-])c1 (centres unmarked) [Compound 17, (3-{[4-(5-{[1-(3-nitrophenyl)ethyl]thio}-1,3,4-oxadiazol-2-yl)benzyl]amino}propyl)phosphonic acid]
13 | 1260 | CCc1cc(CNCCCP(=O)(O)O)sc1-c1nnc(SC(C)c2cccc([N+](=O)[O-])c2)o1 (centres unmarked) [Compound 26, [3-({[4-ethyl-5-(5-{[1-(3-nitrophenyl)ethyl]sulfanyl}-1,3,4-oxadiazol-2-yl)thiophen-2-yl]methyl}amino)propyl]phosphonic acid]
14 | 200 | Cc1cc(CNCCCP(=O)(O)O)sc1-c1nnc(SC(C)c2cccc([N+](=O)[O-])c2)o1 (centres unmarked) [Compound 27, [3-({[4-methyl-5-(5-{[1-(3-nitrophenyl)ethyl]sulfanyl}-1,3,4-oxadiazol-2-yl)thiophen-2-yl]methyl}amino)propyl]phosphonic acid]
